# From US20210322582A1, “RADIOACTIVE IMIDAZOTHIADIAZOLE DERIVATIVE COMPOUND” (Nihon Medi-Physics Co., Ltd., priority 2018, published 2021)
# Tested on: HT-29-transplanted tumor
# Experiment: Biodistribution of [^111In]ITDA3 in HT-29 cancer-bearing mouse
# Format: in vivo
# Settings: for Accumulation of radioactivity: Blood / Accumulation of radioactivity: Brain / Accumulation of radioactivity: HT-29 tumor / Accumulation of radioactivity: Heart / Accumulation of radioactivity: Intestines / Accumulation of radioactivity: Kidney / Accumulation of radioactivity: Liver / Accumulation of radioactivity: Lungs / Accumulation of radioactivity: Muscle / Accumulation of radioactivity: Pancreas / Accumulation of radioactivity: Spleen / Accumulation of radioactivity: Stomach / Tumor/blood / Tumor/muscle: HT-29 mouse
# Method: HT-29 cells and MDA-MB-231 cells (5×10^6 cells/mouse) were subcutaneously inoculated into the left shoulders of 5-week old male BALB/c nude mice, respectively. A saline solution (100 μL) in which[^111In]ITDA3 (40 kBq) had been dissolved was administered to each of the cancer-bearing mice (n=5) via the tail vein. The HT-29 cancer-bearing mice were slaughtered after the lapse of 1, 4, and 24 hours from the administration, the MDA-MB-231 cancer-bearing mouse was slaughtered after the lapse of 24 hours from the administration, and the blood, spleen, pancreas, stomach, intestines, kidney, liver, heart, lungs, brain, HT-29 or MDA-MB-231-transplanted tumor, and muscle were recovered from each of the mice. The weight of each organ was measured, and the amount of radioactivity in each organ was measured by using a gamma counter. The accumulation of radioactivity in each organ except for stomach was expressed by % ID (injected dose)/g obtained by dividing the ratio of the amount of radioactivity of each organ to the administered amount of radioactivity by the organ weight. The stomach was expressed by % ID (injected dose).
structure (smiles),measurement,setting,value
NS(=O)(=O)c1nn2cc(-c3ccc(NC(=O)CCC(C(=O)O)N4CCN(CC(=O)[O-])CCN(CC(=O)[O-])CCN(CC(=O)[O-])CC4)cc3)nc2s1.[111In+3] (centres unmarked) [[^111In]ITDA3],Accumulation of radioactivity: Blood,1 hour after administration,0.09 ± 0.01 % ID/g
same,Accumulation of radioactivity: Brain,1 hour after administration,0.27 ± 0.05 % ID/g
same,Accumulation of radioactivity: HT-29 tumor,1 hour after administration,1.60 ± 0.16 % ID/g
same,Accumulation of radioactivity: Heart,1 hour after administration,6.91 ± 0.32 % ID/g
same,Accumulation of radioactivity: Intestines,1 hour after administration,8.33 ± 0.44 % ID/g
same,Accumulation of radioactivity: Kidney,1 hour after administration,95.81 ± 9.44 % ID/g
same,Accumulation of radioactivity: Liver,1 hour after administration,8.42 ± 1.42 % ID/g
same,Accumulation of radioactivity: Lungs,1 hour after administration,3.58 ± 0.86 % ID/g
same,Accumulation of radioactivity: Muscle,1 hour after administration,2.47 ± 0.45 % ID/g
same,Accumulation of radioactivity: Pancreas,1 hour after administration,14.89 ± 3.20 % ID/g
same,Accumulation of radioactivity: Spleen,1 hour after administration,0.13 ± 0.20 % ID/g
same,Accumulation of radioactivity: Stomach,1 hour after administration,1.80 ± 0.27 % ID
same,Tumor/blood,1 hour after administration,18.89 ± 2.68
same,Tumor/muscle,1 hour after administration,0.66 ± 0.09
same,Accumulation of radioactivity: Blood,4 hours after administration,0.06 ± 0.01 % ID/g
same,Accumulation of radioactivity: Brain,4 hours after administration,0.26 ± 0.04 % ID/g
same,Accumulation of radioactivity: HT-29 tumor,4 hours after administration,1.71 ± 0.28 % ID/g
same,Accumulation of radioactivity: Heart,4 hours after administration,2.87 ± 0.36 % ID/g
same,Accumulation of radioactivity: Intestines,4 hours after administration,7.2 ± 1.53 % ID/g
same,Accumulation of radioactivity: Kidney,4 hours after administration,80.09 ± 5.11 % ID/g
same,Accumulation of radioactivity: Liver,4 hours after administration,6.51 ± 1.50 % ID/g
same,Accumulation of radioactivity: Lungs,4 hours after administration,2.24 ± 0.44 % ID/g
same,Accumulation of radioactivity: Muscle,4 hours after administration,1.88 ± 0.13 % ID/g
same,Accumulation of radioactivity: Pancreas,4 hours after administration,6.2 ± 0.78 % ID/g
same,Accumulation of radioactivity: Spleen,4 hours after administration,0.04 ± 0.03 % ID/g
same,Accumulation of radioactivity: Stomach,4 hours after administration,0.83 ± 0.11 % ID
same,Tumor/blood,4 hours after administration,28.6 ± 3.24
same,Tumor/muscle,4 hours after administration,0.92 ± 0.15
same,Accumulation of radioactivity: Blood,24 hours after administration,0.06 ± 0.01 % ID/g
same,Accumulation of radioactivity: Brain,24 hours after administration,0.33 ± 0.07 % ID/g
same,Accumulation of radioactivity: HT-29 tumor,24 hours after administration,3.02 ± 0.37 % ID/g
same,Accumulation of radioactivity: Heart,24 hours after administration,2.00 ± 0.38 % ID/g
same,Accumulation of radioactivity: Intestines,24 hours after administration,11.11 ± 0.85 % ID/g
same,Accumulation of radioactivity: Kidney,24 hours after administration,70.19 ± 9.28 % ID/g
same,Accumulation of radioactivity: Liver,24 hours after administration,4.92 ± 1.01 % ID/g
same,Accumulation of radioactivity: Lungs,24 hours after administration,1.20 ± 0.15 % ID/g
same,Accumulation of radioactivity: Muscle,24 hours after administration,1.63 ± 0.79 % ID/g
same,Accumulation of radioactivity: Pancreas,24 hours after administration,3.85 ± 0.68 % ID/g
same,Accumulation of radioactivity: Spleen,24 hours after administration,0.08 ± 0.05 % ID/g
same,Accumulation of radioactivity: Stomach,24 hours after administration,0.48 ± 0.04 % ID
same,Tumor/blood,24 hours after administration,52.06 ± 6.11
same,Tumor/muscle,24 hours after administration,2.08 ± 0.67
same,Amount of tumor accumulation compared with [^111In]ITDA1,from Table 5,lower than that of [^111In]ITDA1
same,"Amounts of accumulation in normal tissues (in particular, pancreas, stomach, intestines, and lungs)",from Table 5,small
